Measured values as given in BindingDB's records for doi:10.1016/j.bmc.2011.01.052 (Kinki University, 2011).

Test: Inhibition of rat intestinal maltase

## OC[C@@H]1[C@@H](O)[C@H](O)C[S@+]1C[C@@H](O)[C@H](O)[C@H](O)[C@@H](O)CO [1,4-Dideoxy-1,4-{(R)-[(2S,3R,4R,5S)-2,3,4,5,6-pentahydroxyhexyl]episulfoniumylidene}-D-arabinitol chloride]
  IC50: 1.3 µM

## OC[C@@H](O)C[S@@+]1C[C@@H](O)[C@H](O)[C@H]1CO [1,4-dideoxy-1,4-{(R)-[(2S)-2,3-dihydro-xypropyl]episulfoniumylidene}-D-arabinitol Chloride]
  IC50: 105 µM

## OC[C@@H](O)[C@@H](O)[C@H](O)[C@H](O)C[S@@+]1C[C@@H](O)[C@H](O)[C@H]1CO [(1R,2R,3S,4S)-3,4-dihydroxy-2-(hydroxymethyl)-1-((2S,3S,4R,5R)-2,3,4,5,6-pentahydroxyhexyl)tetrahydro-1H-thiophenium chloride]
  IC50: 4.3 µM

## OC[C@@H]1[C@@H](O)[C@H](O)C[S@+]1C[C@@H](O)[C@@H](O)[C@H](O)[C@@H](O)CO [(1R,2R,3S,4S)-3,4-dihydroxy-2-(hydroxymethyl)-1-((2S,3S,4R,5S)-2,3,4,5,6-pentahydroxyhexyl)tetrahydro-1H-thiophenium chloride]
  IC50: 5.1 µM

## OC[C@@H]1[C@@H](O)[C@H](O)C[S@+]1C[C@@H](O)[C@@H](O)[C@H](O)[C@H](O)[C@@H](O)CO [(2R,3S,4S)-1-[(2S,3S,4R,5R,6S)-2,3,4,5,6,7-hexahydroxyheptyl]-3,4-dihydroxy-2-(hydroxymethyl)tetrahydrothiophenium (non-preferred name)]
  IC50: 4.8 µM

## OC[C@H](O)C[S@@+]1C[C@@H](O)[C@H](O)[C@H]1CO [Neosalaprinol]
  IC50: > 384 µM

## O=S(=O)([O-])O[C@@H]([C@H](O)[C@@H](O)CO)[C@H](O)C[S@@+]1C[C@@H](O)[C@H](O)[C@H]1CO [ponkoranol]
  IC50: 3.2 µM
